Publication PMC11066877, “Development and Characterization of Novel FAP-Targeted Theranostic Pairs: A Bench-to-Bedside Study” (Research, 2023)
Where two headings read alike, the source gives them in different places.

Assays:
[1] = microPET/CT imaging, ROI analysis, BxPC-3 tumor models; type: in vivo, mice; conditions: nude (thymus-free), mouse, intravenous, 3 MBq, 1 h after tracer injection
Experimental: (§1) A human pancreatic cancer cell line BxPC-3 and a murine pancreatic cancer cell Panc-02 were obtained from the American Type Culture Collection. The pancreatic cancer cell line T3M-4 was purchased by MeisenCTCC (Zhejiang, China). BxPC-3 and T3M-4 cell lines were grown in RPMI 1640 medium (Shanghai BasalMedia Technologies Co., LTD.) containing 10% FBS (GE Healthcare, Chicago, IL, USA) and 1% penicillin–streptomycin solution (Invitrogen). To culture the Panc-02 cell line, a medium called Dulbecco’s modified Eagle medium from Shanghai BasalMedia Technologies Co., LTD. was used, which consisted of 10% FBS. The cell line HT-1080 was grown in MEM medium (Shanghai BasalMedia Technologies Co., LTD.) supplemented with 10% FBS, 1% penicillin-streptomycin solution, and 1% nonessential amino acids (NEAA-11140050; Gibco). A human fibrosarcoma cell line was stably transfected with FAP (HT1080-FAP) and cultured, as we previously described. All cell lines were cultured in a humid incubator with 5% CO2 at a temperature of 37 °C. Approval was granted by the Institutional Animal Care and Use Committee (Renji Hospital, School of Medicine, Shanghai Jiao Tong University) for all experimental protocols and procedures related to animal care. Panc-02 cells were implanted by subcutaneous injection of 5 × 10^6 tumor cells suspended in 100 μl PBS and matrigel matrix (Corning) with equal volume into the upper limb flank of C57BL/6 mice (Shanghai Sheng Chang Biotechnology Co., Ltd.). Four- to 6-week-old thymus-free nude mice (GemPharmatech) were subcutaneously inoculated with BxPC-3, T3M-4, HT-1080, and HT1080-FAP cells (5 × 10^6 in 100 μl of PBS mixing with 100 μl matrigel matrix) in the right shoulder. […]
(§2) MicroPET imaging was performed on isoflurane-anesthetized mice injected intravenously via the lateral tail vein with around 3 MBq (2.5 nmol) of the radioligand at certain times. […] The information was analyzed using OsiriX Lite software (Pixmeo SARL) and Inveon Research Workplace (Siemens Preclinical Solutions). […]

[2] = microPET/CT imaging, ROI analysis, Panc-02 tumor models; type: in vivo, mice; conditions: C57BL/6, mouse, intravenous, 3 MBq, 1 h after tracer injection
Experimental: as §1, §2

[3] = microPET/CT imaging, ROI analysis, HT-1080 tumor models; type: in vivo, mice; conditions: nude (thymus-free), mouse, intravenous, 3 MBq, 30 min p.i.
Experimental: as §1, §2

[4] = microPET/CT imaging, ROI analysis, HT1080-FAP tumor models; type: in vivo, mice; conditions: nude (thymus-free), mouse, intravenous
Experimental: (§3) A human pancreatic cancer cell line BxPC-3 and a murine pancreatic cancer cell Panc-02 were obtained from the American Type Culture Collection. The pancreatic cancer cell line T3M-4 was purchased by MeisenCTCC (Zhejiang, China). BxPC-3 and T3M-4 cell lines were grown in RPMI 1640 medium (Shanghai BasalMedia Technologies Co., LTD.) containing 10% FBS (GE Healthcare, Chicago, IL, USA) and 1% penicillin–streptomycin solution (Invitrogen). To culture the Panc-02 cell line, a medium called Dulbecco’s modified Eagle medium from Shanghai BasalMedia Technologies Co., LTD. was used, which consisted of 10% FBS. The cell line HT-1080 was grown in MEM medium (Shanghai BasalMedia Technologies Co., LTD.) supplemented with 10% FBS, 1% penicillin-streptomycin solution, and 1% nonessential amino acids (NEAA-11140050; Gibco). A human fibrosarcoma cell line was stably transfected with FAP (HT1080-FAP) and cultured, as we previously described. All cell lines were cultured in a humid incubator with 5% CO2 at a temperature of 37 °C. Approval was granted by the Institutional Animal Care and Use Committee (Renji Hospital, School of Medicine, Shanghai Jiao Tong University) for all experimental protocols and procedures related to animal care. Panc-02 cells were implanted by subcutaneous injection of 5 × 10^6 tumor cells suspended in 100 μl PBS and matrigel matrix (Corning) with equal volume into the upper limb flank of C57BL/6 mice (Shanghai Sheng Chang Biotechnology Co., Ltd.). Four- to 6-week-old thymus-free nude mice (GemPharmatech) were subcutaneously inoculated with BxPC-3, T3M-4, HT-1080, and HT1080-FAP cells (5 × 10^6 in 100 μl of PBS mixing with 100 μl matrigel matrix) in the right shoulder. Follow-up microPET/CT imaging and ex vivo biodistribution experiments were performed when the tumor diameter reached 8 to 9 mm.
MicroPET imaging was performed on isoflurane-anesthetized mice injected intravenously via the lateral tail vein with around 3 MBq (2.5 nmol) of the radioligand at certain times. Regarding the FD1 blocking group, an excessive amount of unlabeled FD1 (200-fold) was simultaneously injected with [^68Ga]Ga-DOTA-FD1 into the tail vein of another batch of mice. Images were acquired using an IRIS PET/CT system (Inviscan Imaging Systems). PET data were reconstructed using a nonscatter-corrected 3D-ordered subset expectation […]/maximum a posteriori (OSEM3D/MAP) algorithm. The information was analyzed using OsiriX Lite software (Pixmeo SARL) and Inveon Research Workplace (Siemens Preclinical Solutions). The percentage of injected dose per gram of tissue (%ID/g, mean ± SD) was utilized to present the distribution of tracers in the ROI, encompassing tumor, heart, lung, liver, kidney, and muscle.

[5] = Ex vivo biodistribution after imaging, HT-1080 tumor models; type: in vivo, mice; conditions: nude (thymus-free), mouse, intravenous, 3 MBq, total radioactivity, after imaging at 30 min p.i., read-out: tumor uptake (biodistribution study)
Experimental: A human pancreatic cancer cell line BxPC-3 and a murine pancreatic cancer cell Panc-02 were obtained from the American Type Culture Collection. The pancreatic cancer cell line T3M-4 was purchased by MeisenCTCC (Zhejiang, China). BxPC-3 and T3M-4 cell lines were grown in RPMI 1640 medium (Shanghai BasalMedia Technologies Co., LTD.) containing 10% FBS (GE Healthcare, Chicago, IL, USA) and 1% penicillin–streptomycin solution (Invitrogen). To culture the Panc-02 cell line, a medium called Dulbecco’s modified Eagle medium from Shanghai BasalMedia Technologies Co., LTD. was used, which consisted of 10% FBS. The cell line HT-1080 was grown in MEM medium (Shanghai BasalMedia Technologies Co., LTD.) supplemented with 10% FBS, 1% penicillin-streptomycin solution, and 1% nonessential amino acids (NEAA-11140050; Gibco). […]
After imaging collection and image reconstruction, samples from euthanized experimental mice, including blood and multiple significant organs, were harvested and weighed. The radioactivity in each collected tissue was counted using an automated gamma counter (Wizard 2480, PerkinElmer) and the accumulation of radioactivity in different tissues and organs was quantified and expressed as %ID/g (mean ± SD). […] At the end of each probe imaging and radioactivity counting study, tumor tissues were fixed in paraformaldehyde tissue fixative. […]

[6] = Ex vivo biodistribution after imaging, HT1080-FAP tumor models; type: in vivo, mice; conditions: nude (thymus-free), mouse, intravenous, total radioactivity
Experimental: as §3
After imaging collection and image reconstruction, samples from euthanized experimental mice, including blood and multiple significant organs, were harvested and weighed. The radioactivity in each collected tissue was counted using an automated gamma counter (Wizard 2480, PerkinElmer) and the accumulation of radioactivity in different tissues and organs was quantified and expressed as %ID/g (mean ± SD). [^177Lu]Lu-DOTA-FD1 (~1.11 MBq, n = 3), [^177Lu]Lu-DOTA-FD2 (~1.11 MBq, n = 3), and [^177Lu]Lu-DOTA-FD3 (~1.11 MBq, n = 3) were injected into the tail vein of free nude mice at 6 h, 24 h, and 24 h for ex vivo biodistribution to verify the circulation time of the 3 probes in vivo. Biodistribution data from tumor-bearing mice injected with [^177Lu]Lu-DOTA-FD3 at 45 h (~1.11 MBq, n = 4) and 90 h (~1.11 MBq, n = 3) validated the prolonged enrichment of the probe at the tumor site. At the end of each probe imaging and radioactivity counting study, tumor tissues were fixed in paraformaldehyde tissue fixative. Briefly, sections of 10 μm were cut and stained for H&E following the standard protocols. IHC staining with a FAP antibody (ab227703, Abcam) was performed only on tumor tissues following accepted techniques.

[7] = [68Ga]Ga-DOTA-FD1 PET/CT imaging in tumor patients; type: in vivo, human; conditions: human
Experimental: (§4) This clinical trial received ethical approval from the institutional review board of The First Affiliated Hospital of Xiamen University and has been registered at ClinicalTrials.gov (NCT04849247). All healthy volunteers (n = 3) and patients (n = 6) provided written informed consent before participation. There was no need for any particular preparation for [^68Ga]Ga-DOTA-FD1 PET/CT. Each participant was administered a dose of [^68Ga]Ga-DOTA-FD1 at a rate of 3.0 to 3.7 MBq/kg. Adverse events were under observation for 4 h after the injection of [^68Ga]Ga-DOTA-FD1. A hybrid PET/CT system (Discovery MI, GE Healthcare, Milwaukee, WI, USA) was used to perform static PET/CT imaging after 60 min of injection. PET/CT scan was conducted from the head region to the upper thighs (for [^68Ga]Ga-DOTA-FD1 PET/CT). For the CT scan, the parameters utilized were 110 kV, 80 mA, and a slice thickness measuring 3.75 mm. The obtained data were transferred to the Advantage Workstation (version AW 4.7, GE Healthcare). The Bayesian penalized likelihood reconstruction algorithm (Q.clear, GE Healthcare) was utilized for image reconstruction, employing a penalization factor (beta) of 500. For tumor staging/restaging, a total of 6 patients received paired PET/CT imaging using [^68Ga]Ga-DOTA-FD1. In terms of quantitative assessment, the maximum standardized uptake value (SUVmax) and the mean SUV (SUVmean) were employed to quantify the uptake of the radiopharmaceutical in both normal organs and tumor tissues.

[8] = tested on: tumor lesions of patients; assay: [68Ga]Ga-DOTA-FD1 PET/CT imaging in tumor patients; type: in vivo, human; conditions: for Lymph node metastases Median SUVmax (range) / Primary tumor Median SUVmax: initial staging
Experimental: as §4

[9] = Safety and biodistribution of [68Ga]Ga-DOTA-FD1 in healthy volunteers and patients; type: in vivo, human
Experimental: as §4, with “For tumor staging/restaging, a total of 6 patients received paired PET/CT imaging using [^68Ga]Ga-DOTA-FD1.” left out

Question: Which results are given for `CCCCCC(=O)N[C@H]1CSCc2cc(CSCCNC(=O)[C@H](CCCCN)NC(=O)[C@@H](NC(=O)[C@H](CCSC)NC(=O)CN3CCN(CC(=O)O)CCN(CC(=O)O)CCN(CC(=O)O)CC3)C(C)C)cc(c2)CSC[C@@H](C(=O)O)NC(=O)[C@H](Cc2ccccc2)NC(=O)[C@H](CCC(N)=O)NC(=O)[C@H]([C@@H](C)O)NC(=O)[C@@H]2CCCN2C(=O)[C@@H]2CCCN2C1=O` [[^68Ga]Ga-DOTA-FD1, metal not drawn]?
Answer: tissue uptake at 1 h [1]: 0.96 ± 0.07 %ID/g; tissue uptake at 1 h [2]: 0.92 ± 0.22 %ID/g; tissue uptake at 0.5 h [3]: 1.97 ± 0.45 %ID/g; tissue uptake ([4]; 750 ug, HT1080-FAP tumor, co-injected excess unlabeled FD1 (750 μg), read-out: tumor uptake (ROI analysis) upon FD1 blocking): 2.63 ± 1.28 %ID/g; tissue uptake ([4]; 3 MBq, HT1080-FAP tumor, without blocking, read-out: tumor uptake (ROI analysis)): 8.85 ± 3.3 %ID/g; tissue uptake ([4]; kidney, 750 ug, HT1080-FAP models, co-injected excess unlabeled FD1 (750 μg), read-out: kidney accumulation (ROI analysis) upon FD1 blocking): 10.3 ± 1.67 %ID/g; tissue uptake ([4]; kidney, 3 MBq, HT1080-FAP models, without blocking, read-out: kidney accumulation (ROI analysis)): 40.6 ± 4.76 %ID/g; tissue uptake at 0.5 h [5]: 1.02 ± 0.41 %ID/g; tissue uptake ([6]; 750 ug, HT1080-FAP tumor, co-injected excess unlabeled FD1 (750 μg), read-out: tumor uptake (biodistribution) upon FD1 blocking): 2.15 ± 0.58 %ID/g; tissue uptake ([6]; 3 MBq, HT1080-FAP tumor, without blocking, read-out: tumor uptake (biodistribution study)): 19.2 ± 6.51 %ID/g; tissue uptake ([6]; kidney, 750 ug, HT1080-FAP models, co-injected excess unlabeled FD1 (750 μg), read-out: kidney accumulation (biodistribution analysis) upon FD1 blocking): 30.3 ± 4.45 %ID/g; tissue uptake ([6]; kidney, 3 MBq, HT1080-FAP models, without blocking, read-out: kidney accumulation (biodistribution analysis)): 110 ± 27.1 %ID/g; SUV at 1 h ([7]; primary tumour lesions, 4 primary lesions, initial staging patients, 60 min after injection, read-out: median SUVmax of primary lesions): 8.86 SUV; SUV at 1 h ([7]; 15 lymph node metastases in 3 patients, read-out: median SUVmax of lymph node metastases): 5.6 SUV; Bone and visceral metastases Median SUVmax (range) ([8]; Patient 1, thyroid cancer, recurrence detection): 2.87 (2.52–4.45); Lymph node metastases Median SUVmax (range) ([8]; Patient 3, esophagus cancer): 4.29 (4.02–4.57); Primary tumor Median SUVmax ([8]; Patient 3, esophagus cancer): 7.64; Lymph node metastases Median SUVmax (range) ([8]; Patient 4, NPC): 5.67 (4.14–7.76); Primary tumor Median SUVmax ([8]; Patient 4, NPC): 5.27; Primary tumor Median SUVmax ([8]; Patient 5, esophagus cancer): 10.07; Primary tumor Median SUVmax ([8]; Patient 6, esophagus cancer): 13.42; uptake in normal tissues and organs ([9]; healthy volunteers (n = 3), PET 60 min after injection): negligible uptake in normal tissues and organs except the kidneys; adverse events ([9]; healthy volunteers and patients, during the injection and at 4 h follow-up, 3.0 to 3.7 MBq/kg): No adverse events were observed
